For orientation: IC50 means the midpoint of a concentration-inhibition curve.

For one assay, the target named is T1, USP28 (His-tagged USP28-FL-mammalian) (Homo sapiens, UniProt Q96RU2).
T1 construct: Expression of USP28 (1-1077)-TEV-6*His (pTT5 vector); made in house; host or cells: Expi293f cells (pTT5 vector)
T1 sequence (Q96RU2 1-1077): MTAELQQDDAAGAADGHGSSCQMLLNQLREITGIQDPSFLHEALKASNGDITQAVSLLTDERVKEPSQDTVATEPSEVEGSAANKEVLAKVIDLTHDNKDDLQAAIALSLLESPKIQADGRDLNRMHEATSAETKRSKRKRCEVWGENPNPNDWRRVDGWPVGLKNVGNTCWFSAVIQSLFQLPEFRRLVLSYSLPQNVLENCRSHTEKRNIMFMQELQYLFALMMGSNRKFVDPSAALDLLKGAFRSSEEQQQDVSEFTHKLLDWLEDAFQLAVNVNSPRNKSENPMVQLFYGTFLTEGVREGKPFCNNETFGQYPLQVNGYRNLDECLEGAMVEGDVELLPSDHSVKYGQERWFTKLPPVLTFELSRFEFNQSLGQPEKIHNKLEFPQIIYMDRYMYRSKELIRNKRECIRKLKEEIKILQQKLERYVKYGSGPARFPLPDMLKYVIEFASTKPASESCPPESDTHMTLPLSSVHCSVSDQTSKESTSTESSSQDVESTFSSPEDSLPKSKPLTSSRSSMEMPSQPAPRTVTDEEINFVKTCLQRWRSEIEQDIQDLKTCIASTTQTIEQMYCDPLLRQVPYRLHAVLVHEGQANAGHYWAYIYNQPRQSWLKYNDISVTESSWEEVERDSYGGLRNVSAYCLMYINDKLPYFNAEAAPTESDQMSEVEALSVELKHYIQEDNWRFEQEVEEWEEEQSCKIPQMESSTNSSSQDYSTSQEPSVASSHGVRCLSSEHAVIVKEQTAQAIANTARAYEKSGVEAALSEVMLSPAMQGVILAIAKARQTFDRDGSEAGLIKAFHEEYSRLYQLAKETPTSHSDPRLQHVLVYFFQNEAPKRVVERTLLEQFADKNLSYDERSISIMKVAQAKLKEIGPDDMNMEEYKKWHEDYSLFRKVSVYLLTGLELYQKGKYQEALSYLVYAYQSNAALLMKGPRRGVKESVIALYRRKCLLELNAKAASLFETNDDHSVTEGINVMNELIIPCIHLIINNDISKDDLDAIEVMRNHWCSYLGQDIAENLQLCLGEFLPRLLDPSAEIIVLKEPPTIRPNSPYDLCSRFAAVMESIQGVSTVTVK
The experiment in a line: Ubiquitin-Rhodamine 110 Assay for USP28 Activity, Example A-1(a). It counts as biochemical. To be noted: Ubiquitin-Rhodamine 110 assay, Example A-1(a); read-out: USP28 A-1(a) IC50 range. In outline: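 Full-length His-tagged human USP28 (1-1077, Expi293f-expressed), […], with 25 nM Ub-Rh110 (<<Km) in pH 8.0 Tris buffer with BME, BGG, Triton X-100. 10-point dilutions (25 μM-1.3 nM), 45 min at room temperature, citric acid stop, fluorescence 485/535 nm; IC50 by 4-parameter fit.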
As to `Cc1ccc2c(N)c(C(=O)N[C@H]3CCc4nc(N5CC6(C[C@@H](N)CO6)C5)ccc4C3)sc2n1` [Example 398, 3-amino-N-[(6S)-2-[(7R)-7-amino-5-oxa-2-azaspiro[3.4]octan-2-yl]-5,6,7,8-tetrahydroquinolin-6-yl]-6-methylthieno[2,3-b]pyridine-2-carboxamide], the IC50 was 50 to 200 nM.
Regarding `Cc1ccc2c(N)c(C(=O)N[C@H]3CCc4nc(N5C[C@@H](CF)[C@@H](N)C5)ccc4C3)sc2n1` (single isomer, unassigned) [Example 27-1], the IC50 lay within 50 to 200 nM.
Take `Cc1ccc2c(N)c(C(=O)N[C@H]3CCc4nc(N5CC[C@@]6(C5)OCC[C@@H]6N)ccc4C3)sc2n1` [Example 407, 3-amino-N-[(6S)-2-[(4S,5S)-4-amino-1-oxa-7-azaspiro[4.4]nonan-7-yl]-5,6,7,8-tetrahydroquinolin-6-yl]-6-methylthieno[2,3-b]pyridine-2-carboxamide]: the IC50 was in the range of 50 to 200 nM.
As for `COC[C@@H]1[C@@H](N)CCN1c1ccc2c(n1)CC[C@H](NC(=O)c1sc3nc(C)ccc3c1N)C2` [Example 420, 3-amino-N-[(6S)-2-[(2S,3S)-3-amino-2-(methoxymethyl)pyrrolidin-1-yl]-5,6,7,8-tetrahydroquinolin-6-yl]-6-methylthieno[2,3-b]pyridine-2-carboxamide], the IC50 lay in the range of 1 to 50 nM.
The same measure, in the same setting: the result for `Cc1ccc2c(N)c(C(=O)N[C@H]3CCc4nc(N5C[C@H](OC(C)C)[C@@H](N)C5)ncc4C3)sc2n1` [Example 271, 3-amino-N-[(6S)-2-[(3S,4S)-3-amino-4-(propan-2-yloxy)pyrrolidin-1-yl]-5,6,7,8-tetrahydroquinazolin-6-yl]-6-methylthieno[2,3-b]pyridine-2-carboxamide] reads above 2000 nM; that for `Cc1ccc2c(N)c(C(=O)N[C@H]3CCc4nc(N5C6CC(N)CC5CS(=O)(=O)C6)ccc4C3)sc2n1` (stereo partly drawn) [Example 429, 3-amino-N-[(6S)-2-{7-amino-3,3-dioxo-3λ^6-thia-9-azabicyclo[3.3.1]nonan-9-yl}-5,6,7,8-tetrahydroquinolin-6-yl]-6-methylthieno[2,3-b]pyridine-2-carboxamide], 1 to 50 nM; that for `Cc1ccc2c(N)c(C(=O)N[C@H]3CCc4nc(N5C[C@H](CF)[C@@H](N)C5)ccc4C3)sc2n1` [Example 384, 3-amino-N-[(6S)-2-[(3R,4S)-3-amino-4-(fluoromethyl)pyrrolidin-1-yl]-5,6,7,8-tetrahydroquinolin-6-yl]-6-methylthieno[2,3-b]pyridine-2-carboxamide], 50 to 200 nM.

For a further assay, the target named is T2, USP25 (USP25-His6, Boston Biochem E-546) (Homo sapiens, UniProt Q9UHP3).
T2 construct: His6; purchased Boston Biochem E-546
T2 sequence (Q9UHP3 1-1055): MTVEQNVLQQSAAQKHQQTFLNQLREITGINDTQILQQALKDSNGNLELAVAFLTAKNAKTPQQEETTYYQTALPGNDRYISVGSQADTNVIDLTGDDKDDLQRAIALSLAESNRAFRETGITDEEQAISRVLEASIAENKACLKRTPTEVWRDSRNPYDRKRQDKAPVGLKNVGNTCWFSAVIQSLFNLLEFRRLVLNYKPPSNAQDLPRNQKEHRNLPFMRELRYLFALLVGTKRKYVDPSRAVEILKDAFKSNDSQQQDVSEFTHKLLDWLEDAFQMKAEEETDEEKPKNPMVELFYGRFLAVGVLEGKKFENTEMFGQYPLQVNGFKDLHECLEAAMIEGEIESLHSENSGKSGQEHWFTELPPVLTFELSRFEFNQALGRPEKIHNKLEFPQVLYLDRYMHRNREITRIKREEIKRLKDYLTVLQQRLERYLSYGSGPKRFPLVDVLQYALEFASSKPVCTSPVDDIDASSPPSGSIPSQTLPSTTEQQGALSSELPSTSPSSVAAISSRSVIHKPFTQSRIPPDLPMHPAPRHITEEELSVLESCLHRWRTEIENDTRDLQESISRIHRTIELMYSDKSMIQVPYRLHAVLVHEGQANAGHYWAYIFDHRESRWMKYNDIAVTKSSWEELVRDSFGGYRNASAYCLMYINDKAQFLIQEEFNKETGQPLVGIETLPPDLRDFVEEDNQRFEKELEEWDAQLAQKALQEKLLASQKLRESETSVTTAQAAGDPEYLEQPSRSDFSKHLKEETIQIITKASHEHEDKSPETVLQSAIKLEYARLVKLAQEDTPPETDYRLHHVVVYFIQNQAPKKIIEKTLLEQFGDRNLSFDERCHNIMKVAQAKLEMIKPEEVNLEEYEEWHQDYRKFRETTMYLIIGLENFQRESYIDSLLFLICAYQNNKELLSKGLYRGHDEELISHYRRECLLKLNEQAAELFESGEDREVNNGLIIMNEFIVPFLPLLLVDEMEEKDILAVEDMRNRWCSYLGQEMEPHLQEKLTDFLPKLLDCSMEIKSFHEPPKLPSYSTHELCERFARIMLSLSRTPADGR
The experiment in a line: Ubiquitin-Rhodamine 110 Assay for USP25 Activity, Example A-2. It counts as biochemical. As to conditions: Ubiquitin-Rhodamine 110 assay, Example A-2; read-out: USP25 A-2 IC50 range. The method, then:
The assay was performed in a final volume of 9 μL in assay buffer containing 20 mM Tris-HCl (pH 8.0, (1M Tris-HCl, pH 8.0 solution; Corning 46-031-CM)), 3 mM BME (2-Mercaptoethanol; Sigma 63689-25ML-F), 0.03% BGG (0.22 μM filtered, Sigma, G7516-25G), and 0.01% Triton X-100 (Sigma, T9284-10L). Nanoliter quantities of 10-point, 3-fold serial dilution in DMSO was pre-dispensed into 1536 assay plates (Corning, #3724BC) for a final test concentration of 25 μM to 1.3 nM, top to lowest dose, respectively. Enzyme USP25, construct USP25-His6, (Boston Biochem E-546). Concentration and incubation times were optimized for the maximal signal-to-background while maintaining initial velocity conditions at a fixed substrate concentration. The final concentration of the enzyme in the assay was 75 pM. Final substrate (Ub-Rh110; Ubiquitin-Rhodamine 110, R&D Systems #U-555) concentration was 25 nM with [Ub-Rh110]<<Km. 3 μL of 2× enzyme was added to assay plates (pre-stamped with compound) preincubated with […] for 30 minutes and then 3 μL of 2×Ub-Rh110 was added to assay plates. Plates were incubated for 45 minutes at room temperature before addition of 3 μL of stop solution (final concentration of 10 mM citric acid (Sigma, 251275-500G)). Fluorescence was read on the Envision (Excitation at 485 nm and Emission at 535 nm; Perkin Elmer) or on the PheraSTAR (Excitation at 485 nm and Emission at 535 nm; BMG Labtech).
IC50 values were determined by curve fitting of the standard 4 parameter logistic fitting algorithm included in the Activity Base software package: IDBS XE Designer Model 205. Data is fitted using the Levenburg Marquardt algorithm.
Regarding `Cc1ccc2c(N)c(C(=O)NC3COc4cc(N5CCNCC5)ccc4C3C)sc2n1` (single isomer, unassigned) [Example 11-17], the half-inhibitory concentration (IC50) was above 2000 nM.

Source of the values: patent US11524966B1 (Valo Early Discovery, Inc., priority 2017, dated 2022).
